Test results from US20260297083A1, “SUBSTITUTED ACETYLENE COMPOUND DERIVATIVES AND THEIR PHARMACEUTICAL USE” (AVELOS THERAPEUTICS INC., priority 2023, published 2026).
pIC50: −log10 of the molar value.

Each compound was assayed against T1, Polθ polymerase domain (amino acids 1792-2590) (Homo sapiens, UniProt O75417) (assay: Picogreen assay of Polθ polymerase activity). Conditions: 12-point concentration response, 90 minutes incubation at room temperature, 8 nM Polθ in 2×polymerase mixture, read-out: PolQ IC50.
T1 construct: 10×Histidine-SUMO (N, cleaved yes); made in house; host or cells: E. coli
T1 sequence (O75417 1792-2590): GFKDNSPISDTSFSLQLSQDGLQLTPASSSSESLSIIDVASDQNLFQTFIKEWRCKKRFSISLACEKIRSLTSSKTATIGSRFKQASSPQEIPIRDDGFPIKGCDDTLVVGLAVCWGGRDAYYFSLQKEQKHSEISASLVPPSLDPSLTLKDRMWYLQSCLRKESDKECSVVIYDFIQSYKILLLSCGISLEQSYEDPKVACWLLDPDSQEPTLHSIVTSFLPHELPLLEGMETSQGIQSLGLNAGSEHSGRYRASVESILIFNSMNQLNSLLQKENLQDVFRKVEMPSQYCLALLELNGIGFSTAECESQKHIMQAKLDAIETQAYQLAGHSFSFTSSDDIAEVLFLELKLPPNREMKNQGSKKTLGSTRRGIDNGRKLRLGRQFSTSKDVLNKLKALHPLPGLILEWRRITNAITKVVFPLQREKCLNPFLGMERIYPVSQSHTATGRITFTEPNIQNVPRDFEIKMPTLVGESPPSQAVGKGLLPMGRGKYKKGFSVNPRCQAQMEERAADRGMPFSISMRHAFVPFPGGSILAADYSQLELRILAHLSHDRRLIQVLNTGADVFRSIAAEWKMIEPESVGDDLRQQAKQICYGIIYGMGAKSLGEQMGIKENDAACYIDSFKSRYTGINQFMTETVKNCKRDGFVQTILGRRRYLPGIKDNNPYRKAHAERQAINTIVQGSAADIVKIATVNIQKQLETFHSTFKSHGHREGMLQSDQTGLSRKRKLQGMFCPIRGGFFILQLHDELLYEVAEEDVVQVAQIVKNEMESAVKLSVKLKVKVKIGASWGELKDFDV
Assay type: biochemical
From the text: The DNA sequence of the polQ gene (Genebank ID #NM 199420.4) was chemically synthesized. The DNA sequence encoding the polymerase domain (amino acids 1792-2590) was subcloned into an E. coli expression plasmid, resulting in the fusion of 10×Histidine-SUMO tag at the N terminus of the polymerase domain.
The protein was expressed in E. coli. and purified using a 2-step IMAC (immobilized metal chelate affinity chromatography) procedure. Briefly stated, the overexpressed E. coli lysate was subjected to Ni-NTA purification, and an N-terminal tag was digested by a SUMO protease. Then, the excised fragment of 10×Histidine-SUMO tag was removed using Ni-NTA beads. The resulting protein was used for the Picogreen assay, as described below.
The methods of DNA complex preparation were slightly modified from the protocol previously reported (Zatreanu et al., 2021, Nature Communications, 12:3636). Briefly stated, polθ substrate was prepared by mixing Oligo1 (5′-GCG GCT GTC ATA AG-3′) and Oligo2 (5′-GCTACATTGACAATGGCATCAAATCTCAGATTGCGTCTTATGACAGCCGCG-3′) in an annealing buffer (20 mM Tris-Cl, pH 7.5, 50 mM NaCl) to the final concentration of 22 uM and 20 uM, respectively. The Polθ product was prepared by mixing Oligo3 (5′-CGCGGCTGTCATAAGACGCAATCTGAGATTTGATGCCATTGTCAATGTAGC-3′) and Oligo2 (5′-GCTACATTGACAATGGCATCAAATCTCAGATTGCGTCTTATGACAGCCGCG-3′) to the final concentration of 20 uM. The polθ product was used for the top signal control in the Picogreen assay. Both substrate and product were heated to 95° C. […] and cooled slowly to room temperature.
To evaluate the ability of test compounds to inhibit the activity of polθ in vitro, a Picogreen assay was performed to measure polθ IC50 (nM).
The reactions were performed at room temperature in an assay buffer (25 mM Tris-HCl, pH 7.5, 12.5 mM NaCl, 0.5 mM MgCl2, 5% (v/v) glycerol, 0.01% (v/v) Triton X-100, 0.01% (w/v) Bovine serum albumin, 1 mM DTT). Thirty microliters of 2×polymerase mixture (8 nM Polθ enzyme in an assay buffer) were distributed to 96 well plates, test compounds were prepared by dilution in 100% DMSO to obtain the correct dose range for a 12-point concentration response and 1 μl was dispensed into each well, and then 30 microliters of 2×substrate mix (100 nM DNA and 40 uM dNTPs in an assay buffer) was added. After 90 minutes of incubation, the reaction was stopped and DNA was stained by adding 40 microliters of Picogreen solution (1:80 dilution of Picogreen, Invitrogen, Cat #P7581, 25 mM Tris-HCl, pH 7.5, 10 mM EDTA, pH 7.5).
The fluorescence intensity was measured at excitation/emission=485 nm/520 nm using an Ensight plate reader (Perkin Elmer). The data was analyzed by GraphPad Prism software (Version 8.4.3) to calculate IC50.

SMILES	pIC50
Cc1cc(C(F)(F)F)cc(N2[C@H](C(=O)N(CC#Cc3ccc(N4CCOCC4)nc3)c3ccc(F)c(C)c3)CCS2(=O)=O)n1 [compound 85]	7.30 to 9.00
Cc1cc(C(F)(F)F)cc(N2[C@H](C(=O)N(CC#Cc3cnc(N4C5CCC4COC5)cn3)c3ccc(F)c(C)c3)CCS2(=O)=O)n1 [compound 49]	7.30 to 9.00
Cc1cc(C(F)(F)F)cc(N2[C@H](C(=O)N(CC#Cc3cnc(N4C[C@H](C)N(C(C)C)[C@@H](C)C4)cn3)c3ccc(F)c(C)c3)CCS2(=O)=O)n1 (stereo in doubt) [compound 54]	< 7.00
Cc1cc(C(F)(F)F)cc(N2[C@H](C(=O)N(CC#Cc3cncc(C(=O)N4CC5CCC(C4)N5)n3)c3ccc(F)c(C)c3)CCS2(=O)=O)n1 [compound 73]	7.30 to 9.00
Cc1cc(C(F)(F)F)cc(N2[C@H](C(=O)N(CC#Cc3cnc(N4CCOCC4)c(C)n3)c3ccc(F)c(C)c3)CCS2(=O)=O)n1 [compound 45]	7.30 to 9.00
Cc1cc(C(F)(F)F)cc(N2[C@H](C(=O)N(CC#Cc3cnc(N4CCOCC4)nc3)c3ccc(F)c(C)c3)CCS2(=O)=O)n1 [compound 77]	7.30 to 9.00
Cc1cc(C(F)(F)F)cc(N2[C@H](C(=O)N(CC#Cc3cc(N4CCOCC4)nc(C(F)(F)F)n3)c3ccc(F)c(C)c3)CCS2(=O)=O)n1 [compound 76]	7.00 to 7.29
Cc1cc(C(F)(F)F)cc(N2[C@H](C(=O)N(CC#Cc3nccc(N4CCOCC4)n3)c3ccc(F)c(C)c3)CCS2(=O)=O)n1 [compound 80]	7.30 to 9.00
Cc1cc(C(F)(F)F)cc(N2[C@H](C(=O)N(CC#Cc3ncnc(N4CCOCC4)n3)c3ccc(F)c(C)c3)CCS2(=O)=O)n1 [compound 103]	< 7.00
C=CC(=O)Nc1cncc(C#CCN(C(=O)[C@@H]2CCS(=O)(=O)N2c2cc(C(F)(F)F)cc(C)n2)c2ccc(F)c(C)c2)n1 [compound 128]	7.30 to 9.00
C=CC(=O)Nc1cnccc1C#CCN(C(=O)[C@@H]1CCS(=O)(=O)N1c1cc(C(F)(F)F)cc(C)n1)c1ccc(F)c(C)c1 [compound 144, (S)-N-(3-(3-acrylamidopyridin-4-yl)prop-2-yn-1-yl)-N-(4-fluoro-3-methylphenyl)-2-(6-methyl-4-(trifluoromethyl)pyridin-2-yl)isothiazolidine-3-carboxamide 1,1-dioxide]	7.00 to 7.29
Cc1cc(C(F)(F)F)cc(N2[C@H](C(=O)N(CC#Cc3cncn3C)c3ccc(F)c(C)c3)CCS2(=O)=O)n1 [compound 102]	7.30 to 9.00
Cc1cc(C(F)(F)F)cc(N2[C@H](C(=O)N(CC#Cc3ncc(N4CCOCC4)cn3)c3ccc(F)c(C)c3)CCS2(=O)=O)n1 [compound 79]	7.30 to 9.00
Cc1cc(C(F)(F)F)cc(N2[C@H](C(=O)N(CC#Cc3ccc(Cc4ncc(C(N)=O)cn4)nc3)c3ccc(F)c(C)c3)CCS2(=O)=O)n1 [compound 132]	7.30 to 9.00
Cc1cc(C(F)(F)F)cc(N2[C@H](C(=O)N(CC#Cc3ccc(C(N)=O)nc3)C(C)(C)c3ccc(F)c(C)c3)CCS2(=O)=O)n1 [compound 112]	< 7.00

The next lines start with the values.

pIC50	SMILES
7.30 to 9.00	Cc1cc(C(F)(F)F)cc(N2[C@H](C(=O)N(CC#Cc3cccc(C(N)=O)c3)c3ccc(F)c(C)c3)CCS2(=O)=O)n1 [compound 106]
7.30 to 9.00	Cc1cc(C(F)(F)F)cc(N2[C@H](C(=O)N(CC#Cc3ccc(Cc4ccc(C(N)=O)nn4)nc3)c3ccc(F)c(C)c3)CCS2(=O)=O)n1 [compound 131]
7.30 to 9.00	Cc1cccc(N(CC#Cc2ccc(N)nn2)C(=O)[C@@H]2CN(C)S(=O)(=O)N2c2cc(C(F)(F)F)cc(C)n2)c1 [compound 107]
7.30 to 9.00	CNC(=O)c1cnc(C#CCN(C(=O)[C@@H]2CCS(=O)(=O)N2c2cc(C(F)(F)F)cc(C)n2)c2ccc(F)c(C)c2)cn1 [compound 67]
7.30 to 9.00	COc1ccc(C#CCN(C(=O)[C@@H]2CCS(=O)(=O)N2c2cc(C(F)(F)F)cc(C)n2)c2ccc(F)c(C)c2)nn1 [compound 27]
7.30 to 9.00	CCN1CCN(c2cnc(C#CCN(C(=O)[C@@H]3CCS(=O)(=O)N3c3cc(C(F)(F)F)cc(C)n3)c3cc(C)ccc3F)cn2)CC1 [compound 51]
7.30 to 9.00	Cc1cc(C(F)(F)F)cc(N2[C@H](C(=O)N(CC#Cc3ccc(C(N)=O)nc3C)c3ccc(F)c(C)c3)CCS2(=O)=O)n1 [compound 117]
7.30 to 9.00	Cc1cc(C(F)(F)F)cc(N2C(=O)CC[C@H]2C(=O)N(CC#CCN2CCOCC2)c2ccc(F)c(C)c2F)n1 [compound 14]
7.30 to 9.00	Cc1cc(C(F)(F)F)cc(N2[C@H](C(=O)N(CC#Cc3cnc(N)cn3)c3ccc(F)c(C)c3)CCS2(=O)=O)n1 [compound 30]
7.30 to 9.00	Cc1cc(C(F)(F)F)cc(N2C(=O)CC[C@H]2C(=O)N(CC#Cc2ccc(N)nn2)c2ccc(F)c(Cl)c2F)n1 [compound 4]
7.30 to 9.00	Cc1cc(C(F)(F)F)cc(N2[C@H](C(=O)N(CC#Cc3cnc(N)cn3)c3ccc(F)c(C)c3F)CCS2(=O)=O)n1 [compound 17]
7.30 to 9.00	Cc1cc(C(F)(F)F)cc(N2C(=O)CC[C@H]2C(=O)N(CC#Cc2cncn2C)c2ccc(F)c(C)c2)n1 [compound 9]
7.00 to 7.29	Cc1cc(C(F)(F)F)cc(N2[C@H](C(=O)N(CC#Cc3cc(C)c(F)c(C)n3)c3ccc(F)c(C)c3)CCS2(=O)=O)n1 [compound 90]
7.30 to 9.00	CCN1CCN(c2ccc(C#CCN(C(=O)[C@@H]3CCS(=O)(=O)N3c3cc(C(F)(F)F)cc(C)n3)c3ccc(F)c(C)c3)nn2)CC1 [compound 24]
7.30 to 9.00	Cc1cc(C(F)(F)F)cc(N2[C@H](C(=O)N(CC#Cc3ccc(F)cn3)c3ccc(F)c(C)c3)CCS2(=O)=O)n1 [compound 93]
7.30 to 9.00	CC(=O)Nc1ccc(C#CCN(C(=O)[C@@H]2CCS(=O)(=O)N2c2cc(C(F)(F)F)cc(C)n2)c2ccc(F)c(C)c2)nn1 [compound 22]
7.30 to 9.00	Cc1cc(C(F)(F)F)cc(N2C(=O)CC[C@H]2C(=O)N(CC#Cc2ccc(N)nn2)c2ccc(F)c(C)c2F)n1 [compound 2]
< 7.00	Cc1cc(C(F)(F)F)cc(N2[C@H](C(=O)N(CC#Cc3cnc(-c4ncon4)cn3)c3ccc(F)c(C)c3)CCS2(=O)=O)n1 [compound 58]
7.30 to 9.00	Cc1cc(C(F)(F)F)cc(N2[C@H](C(=O)N(CC#Cc3cc(F)c(C(N)=O)cn3)c3ccc(F)c(C)c3)CCS2(=O)=O)n1 [compound 122]
7.30 to 9.00	Cc1cc(C(F)(F)F)cc(N2[C@H](C(=O)N(CC#Cc3ccc(=O)[nH]n3)c3ccc(F)c(C)c3)CCS2(=O)=O)n1 [compound 26]
7.30 to 9.00	C=CC(=O)Nc1ccc(C#CCN(C(=O)[C@@H]2CCS(=O)(=O)N2c2cc(C(F)(F)F)cc(C)n2)c2ccc(F)c(C)c2)nc1 [compound 140, (S)-N-(3-(5-acrylamidopyridin-2-yl)prop-2-yn-1-yl)-N-(4-fluoro-3-methylphenyl)-2-(6-methyl-4-(trifluoromethyl)pyridin-2-yl)isothiazolidine-3-carboxamide 1,1-dioxide]
